Tests used:
Format in all cases: in vivo, human
[1] = tested on: adult subjects with schizophrenia; assay: CGI Severity of Illness score, Clinical Study Three; settings: for Change from Baseline in CGI Severity of Illness Score, Median / Change from Baseline in CGI Severity of Illness Score, Mean (SD): 30 mg; for Change from Baseline in CGI Severity of Illness Score, Median / Change from Baseline in CGI Severity of Illness Score, Mean (SD) / mean change (SD) from Baseline to Endpoint in CGI severity of illness score: LOCF; for CGI severity of illness score, treatment effect (bifeprunox—placebo): Endpoint LOCF; for mean change (SD) from Baseline to Endpoint in CGI severity of illness score: ITT
Text: SECONDARY OBJECTIVES To assess the efficacy of bifeprunox in treating schizophrenia using the Positive Symptom sub-scale score of the PANSS, the Negative Symptom sub-scale score of the PANSS, the General Psychopathology sub-scale of the PANSS, Brief Psychiatric Rating Scale (BPRS) total score derived from the PANSS, BPRS psychosis score derived from the PANSS, the Clinical Global Impression Severity of Illness score (CGI-S), the Clinical Global Impression Improvement score (CGI-I), CGI-I responder rate, PANSS responder rate based on the PANSS total score, Calgary Depression Scale for Schizophrenia (CDSS), and Subject Satisfaction rating.
There were four treatment arms in this study, approximately 144 subjects per arm. […] After completing the Single-Blind Placebo Lead-in Period of at least three days, bifeprunox-treated subjects were titrated from 0.25 mg up to 20 mg/day or 30 mg/day according to a standardized titration scheme over a seven- or eight-day period, respectively. When the assigned dose was reached, subjects were maintained at that dose for the remainder of the six week treatment period. […] Subjects were hospitalized (if not already inpatients) after eligibility for study entry was verified, starting from the Screening Visit until at least 10 days after Baseline. Subjects could be hospitalized longer than 10 days if considered medically necessary by the Investigator. Rating scale assessments for efficacy and abnormal movement disorders were done weekly except for Week 5. […] Subject satisfaction with study medication was assessed at Week 6.

[2] = tested on: adult subjects with schizophrenia; assay: CGI Improvement score, Clinical Study Three; parameters: CGI Improvement Very Much Worse, %: dose or concentration left out as unconfirmed; settings: LOCF
Experimental: CLINICAL STUDY THREE: Table 29 below presents frequencies for the seven categories of CGI Improvement ratings by visit using LOCF for the ITT population. Statistical differences among treatment groups regarding the mean CGI Improvement score were evaluated using a CMH test stratified by pooled center applied to the frequencies of the seven CGI Improvement categories with modified ridit scores. […] The treatment comparison of the 30 mg bifeprunox group versus placebo group was not notable (p=0.162). No notable differences were observed between the placebo group and either of the two bifeprunox dose groups at any other time point during the study (Week 1 through Week 4).

[3] = tested on: adult subjects with schizophrenia; assay: PANSS negative symptom subscale score, Clinical Study Two; settings: LOCF, ITT; for PANSS Negative Symptom Subscale Score, Trt Effect (bifeprunox—placebo): ANCOVA
Experimental: Rating scale assessments were performed weekly, except for week 5, to measure the change from baseline to endpoint of the PANSS total score. Other assessments included: PANSS positive symptom subscale score, PANSS negative symptom subscale score, PANSS general pschopathology subscale score, BPRS total score, BPRS psychosis score, the CGI-S score, the CGI-I score, responder rates based on the PANSS total score, and the Calgary Depression Scale for Schizophrenia (CDSS). […]
Subjects who completed this study had the option to continue in the long-term. […] Risperidone-treated subjects were titrated from 2 mg to 6 mg daily over a three-day period and were subsequently maintained at 6 mg/day for the remainder of the treatment period. […] Blood samples were also obtained at Screening/Baseline, Week 3, and Week 6 for clinical laboratory assessments.

[4] = Bifeprunox 30 mg, Week 6/Endpoint
[5] = Bifeprunox 40 mg, Week 6/Endpoint

Structure (SMILES): O=c1[nH]c2cccc(N3CCN(Cc4cccc(-c5ccccc5)c4)CC3)c2o1 [Bifeprunox, 7-[4-([1,1′-biphenyl]-3-ylmethyl)-1-piperazinyl]-2(3H)-benzoxazolone]
- Change from Baseline in CGI Severity of Illness Score, Median ([1]; Week 1): 0.0
- Change from Baseline in CGI Severity of Illness Score, Mean (SD) ([1]; Week 2): −0.41 (0.76)
- Change from Baseline in CGI Severity of Illness Score, Median ([1]; Week 2): 0.0
- Change from Baseline in CGI Severity of Illness Score, Mean (SD) ([1]; Week 3): −0.50 (0.90)
- Change from Baseline in CGI Severity of Illness Score, Median ([1]; Week 3): 0.0
- Change from Baseline in CGI Severity of Illness Score, Mean (SD) ([1]; Week 4): −0.57 (0.89)
- Change from Baseline in CGI Severity of Illness Score, Median ([1]; Week 4): −1.0
- Change from Baseline in CGI Severity of Illness Score, Mean (SD) ([1]; Week 6/Endpoint): −0.62 (1.03)
- Change from Baseline in CGI Severity of Illness Score, Median ([1]; Week 6/Endpoint): −1.0
- CGI severity of illness score, treatment effect (bifeprunox—placebo) ([1]; bifeprunox 20 mg): −0.13
- mean change (SD) from Baseline to Endpoint in CGI severity of illness score ([1]; bifeprunox 20 mg): −0.63 (0.98)
- CGI severity of illness score, treatment effect (bifeprunox—placebo) ([1]; bifeprunox 30 mg): −0.09
- mean change (SD) from Baseline to Endpoint in CGI severity of illness score ([1]; bifeprunox 30 mg): −0.62 (1.03)
- CGI Improvement Minimally Improved, % ([2]; 30 mg, Week 2): (45%)
- CGI Improvement Minimally Worse, % ([2]; 30 mg, Week 2): (9%)
- CGI Improvement Much Improved, % ([2]; 30 mg, Week 2): (21%)
- CGI Improvement Much Worse, % ([2]; 30 mg, Week 2): (4%)
- CGI Improvement No Change, % ([2]; 30 mg, Week 2): (19%)
- CGI Improvement Very Much Improved, % ([2]; 30 mg, Week 2): (2%)
- CGI Improvement Minimally Improved, % ([2]; 30 mg, Week 4): (30%)
- CGI Improvement Minimally Worse, % ([2]; 30 mg, Week 4): (11%)
- CGI Improvement Much Improved, % ([2]; 30 mg, Week 4): (32%)
- CGI Improvement Much Worse, % ([2]; 30 mg, Week 4): (6%)
- CGI Improvement No Change, % ([2]; 30 mg, Week 4): (17%)
- CGI Improvement Very Much Improved, % ([2]; 30 mg, Week 4): (5%)
- CGI Improvement Minimally Improved, % ([2]; 30 mg, Week 6/Endpoint): (28%)
- CGI Improvement Minimally Worse, % ([2]; 30 mg, Week 6/Endpoint): (13%)
- CGI Improvement Much Improved, % ([2]; 30 mg, Week 6/Endpoint): (33%)
- CGI Improvement Much Worse, % ([2]; 30 mg, Week 6/Endpoint): (7%)
- CGI Improvement No Change, % ([2]; 30 mg, Week 6/Endpoint): (15%)
- CGI Improvement Very Much Improved, % ([2]; 30 mg, Week 6/Endpoint): (5%)
- CGI Improvement Minimally Improved, % ([2]; 40 mg, Week 2): (37%)
- CGI Improvement Minimally Worse, % ([2]; 40 mg, Week 2): (7%)
- CGI Improvement Very Much Improved, % ([2]; 40 mg, Week 2): (<1%.)
- CGI Improvement Minimally Improved, % ([2]; 40 mg, Week 4): (29%)
- CGI Improvement Minimally Worse, % ([2]; 40 mg, Week 4): (8%)
- CGI Improvement Very Much Improved, % ([2]; 40 mg, Week 4): (3%)
- CGI Improvement Minimally Improved, % ([2]; 40 mg, Week 6/Endpoint): (30%)
- CGI Improvement Minimally Worse, % ([2]; 40 mg, Week 6/Endpoint): (8%)
- CGI Improvement Very Much Improved, % ([2]; 40 mg, Week 6/Endpoint): (7%)
- CGI Improvement Much Improved, % ([2]; Week 2): (19%)
- CGI Improvement Much Worse, % ([2]; Week 2): (10%)
- CGI Improvement No Change, % ([2]; Week 2): (22%)
- CGI Improvement Very Much Worse, % ([2]; Week 2): (<1%)
- CGI Improvement Much Improved, % ([2]; Week 4): (30%)
- CGI Improvement Much Worse, % ([2]; Week 4): (11%)
- CGI Improvement No Change, % ([2]; Week 4): (17%)
- CGI Improvement Very Much Worse, % ([2]; Week 4): (1%)
- CGI Improvement Much Improved, % ([2]; Week 6/Endpoint): (27%)
- CGI Improvement Much Worse, % ([2]; Week 6/Endpoint): (11%)
- CGI Improvement No Change, % ([2]; Week 6/Endpoint): (16%)
- CGI Improvement Very Much Worse, % ([2]; Week 6/Endpoint): (1%)
- Change from Baseline in PANSS Negative Symptom Subscale Score, Mean (SD) ([3]; Bifeprunox 30 mg, Week 1): −1.6 (3.7)
- Change from Baseline in PANSS Negative Symptom Subscale Score, Median ([3]; Bifeprunox 30 mg, Week 1): −1
- Change from Baseline in PANSS Negative Symptom Subscale Score, Mean (SD) ([3]; Bifeprunox 30 mg, Week 2): 2.6 (4.4)
- Change from Baseline in PANSS Negative Symptom Subscale Score, Median ([3]; Bifeprunox 30 mg, Week 2): −2
- Change from Baseline in PANSS Negative Symptom Subscale Score, Mean (SD) ([3]; Bifeprunox 30 mg, Week 3): −3.0 (5.0)
- Change from Baseline in PANSS Negative Symptom Subscale Score, Median ([3]; Bifeprunox 30 mg, Week 3): −3
- Change from Baseline in PANSS Negative Symptom Subscale Score, Mean (SD) ([3]; Bifeprunox 30 mg, Week 4): −3.1 (5.3)
- Change from Baseline in PANSS Negative Symptom Subscale Score, Median ([3]; Bifeprunox 30 mg, Week 4): −2
- Change from Baseline in PANSS Negative Symptom Subscale Score, Mean (SD) [3, 4]: −3.1 (5.6)
- Change from Baseline in PANSS Negative Symptom Subscale Score, Median [3, 4]: −2
- PANSS Negative Symptom Subscale Score, Trt Effect (bifeprunox—placebo) [3, 4]: −1.4
- Change from Baseline in PANSS Negative Symptom Subscale Score, Mean (SD) ([3]; Bifeprunox 40 mg, Week 1): −1.2 (3.3)
- Change from Baseline in PANSS Negative Symptom Subscale Score, Median ([3]; Bifeprunox 40 mg, Week 1): −1
- Change from Baseline in PANSS Negative Symptom Subscale Score, Mean (SD) ([3]; Bifeprunox 40 mg, Week 2): −1.9 (4.0)
- Change from Baseline in PANSS Negative Symptom Subscale Score, Median ([3]; Bifeprunox 40 mg, Week 2): −2
- Change from Baseline in PANSS Negative Symptom Subscale Score, Mean (SD) ([3]; Bifeprunox 40 mg, Week 3): −2.2 (4.7)
- Change from Baseline in PANSS Negative Symptom Subscale Score, Median ([3]; Bifeprunox 40 mg, Week 3): −1
- Change from Baseline in PANSS Negative Symptom Subscale Score, Mean (SD) ([3]; Bifeprunox 40 mg, Week 4): −2.1 (4.9)
- Change from Baseline in PANSS Negative Symptom Subscale Score, Median ([3]; Bifeprunox 40 mg, Week 4): −1
- Change from Baseline in PANSS Negative Symptom Subscale Score, Mean (SD) [3, 5]: −2.2 (5.4)
- Change from Baseline in PANSS Negative Symptom Subscale Score, Median [3, 5]: −1
- PANSS Negative Symptom Subscale Score, Trt Effect (bifeprunox—placebo) [3, 5]: −0.9

Source: patent publication US20090068290A1, “BIFEPRUNOX DOSES FOR TREATING SCHIZOPHRENIA” (priority 2006, published 2009)
